From ChEMBL document CHEMBL4507281, “Data for DCP probe BI-4394” (2021)

Columns and labels:
[1] = test system: Tyrosine-protein kinase ABL1 (Homo sapiens), P00519 [F317L]; conditions: Compound concentration 100.0 nM
[2] = target: Tyrosine-protein kinase ABL1 (Homo sapiens) (UniProt P00519); conditions: Compound concentration 100.0 nM
[3] = target: Bone morphogenetic protein receptor type-1A (Homo sapiens) (UniProt P36894); conditions: Compound concentration 100.0 nM
[4] = target: Serine/threonine-protein kinase B-raf (Homo sapiens) (UniProt P15056); conditions: Compound concentration 100.0 nM
[5] = target: Cyclin-dependent kinase 19 (Homo sapiens) (UniProt Q9BWU1); conditions: Compound concentration 100.0 nM
[6] = target: Cyclin-dependent kinase 2 (Homo sapiens) (UniProt P24941); conditions: Compound concentration 100.0 nM
[7] = target: Cyclin-dependent kinase-like 1 (Homo sapiens) (UniProt Q00532); conditions: Compound concentration 100.0 nM
[8] = target: Casein kinase II subunit alpha (Homo sapiens) (UniProt P68400); conditions: Compound concentration 100.0 nM
[9] = target: Serine/threonine-protein kinase DCLK2 (Homo sapiens) (UniProt Q8N568); conditions: Compound concentration 100.0 nM
[10] = test system: Epidermal growth factor receptor (Homo sapiens), P00533 [UNDEFINED MUTATION]; conditions: Compound concentration 100.0 nM
[11] = target: Eukaryotic translation initiation factor 2-alpha kinase 1 (Homo sapiens) (UniProt Q9BQI3); conditions: Compound concentration 100.0 nM
[12] = target: Ephrin type-B receptor 1 (Homo sapiens) (UniProt P54762); conditions: Compound concentration 100.0 nM
[13] = target: Mitogen-activated protein kinase 15 (Homo sapiens) (UniProt Q8TD08); conditions: Compound concentration 100.0 nM
[14] = target: Vascular endothelial growth factor receptor 1 (Homo sapiens) (UniProt P17948); conditions: Compound concentration 100.0 nM
[15] = test system: Receptor-type tyrosine-protein kinase FLT3 (Homo sapiens), P36888 [UNDEFINED MUTATION]; conditions: Compound concentration 100.0 nM
[16] = test system: Receptor-type tyrosine-protein kinase FLT3 (Homo sapiens), P36888 [K663Q]; conditions: Compound concentration 100.0 nM
[17] = target: Homeodomain-interacting protein kinase 1 (Homo sapiens) (UniProt Q86Z02); conditions: Compound concentration 100.0 nM
[18] = target: Insulin receptor (Homo sapiens) (UniProt P06213); conditions: Compound concentration 100.0 nM
[19] = target: Tyrosine-protein kinase JAK1 (Homo sapiens) (UniProt P23458); conditions: Compound concentration 100.0 nM
[20] = target: Serine/threonine-protein kinase LATS1 (Homo sapiens) (UniProt O95835); conditions: Compound concentration 100.0 nM
[21] = target: Serine/threonine-protein kinase STK11 (Homo sapiens) (UniProt Q15831); conditions: Compound concentration 100.0 nM
[22] = test system: Leucine-rich repeat serine/threonine-protein kinase 2 (Homo sapiens), Q5S007 [G2019S]; conditions: Compound concentration 100.0 nM
[23] = target: Mitogen-activated protein kinase kinase kinase 13 (Homo sapiens) (UniProt O43283); conditions: Compound concentration 100.0 nM
[24] = target: Serine/threonine-protein kinase MAK (Homo sapiens) (UniProt P20794); conditions: Compound concentration 100.0 nM
[25] = target: Mitogen-activated protein kinase kinase kinase 1 (Homo sapiens) (UniProt Q13233); conditions: Compound concentration 100.0 nM
[26] = target: Mitogen-activated protein kinase kinase kinase 2 (Homo sapiens) (UniProt Q9Y2U5); conditions: Compound concentration 100.0 nM
[27] = target: Mitogen-activated protein kinase kinase kinase 9 (Homo sapiens) (UniProt P80192); conditions: Compound concentration 100.0 nM
[28] = target: Serine/threonine-protein kinase 4 (Homo sapiens) (UniProt Q13043); conditions: Compound concentration 100.0 nM
[29] = target: Cyclin-dependent kinase 17 (Homo sapiens) (UniProt Q00537); conditions: Compound concentration 100.0 nM
[30] = target: Platelet-derived growth factor receptor beta (Homo sapiens) (UniProt P09619); conditions: Compound concentration 100.0 nM
[31] = target: Phosphorylase b kinase gamma catalytic chain, skeletal muscle/heart isoform (Homo sapiens) (UniProt Q16816); conditions: Compound concentration 100.0 nM
[32] = test system: Phosphatidylinositol 4,5-bisphosphate 3-kinase catalytic subunit alpha isoform (Homo sapiens), P42336 [H1047L]; conditions: Compound concentration 100.0 nM
[33] = target: Serine/threonine-protein kinase pim-2 (Homo sapiens) (UniProt Q9P1W9); conditions: Compound concentration 100.0 nM
[34] = target: Serine/threonine-protein kinase N2 (Homo sapiens) (UniProt Q16513); conditions: Compound concentration 100.0 nM
[35] = target: Protein kinase C delta type (Homo sapiens) (UniProt Q05655); conditions: Compound concentration 100.0 nM
[36] = target: cGMP-dependent protein kinase 1 (Homo sapiens) (UniProt Q13976); conditions: Compound concentration 100.0 nM
[37] = target: RAF proto-oncogene serine/threonine-protein kinase (Homo sapiens) (UniProt P04049); conditions: Compound concentration 100.0 nM
[38] = target: NUAK family SNF1-like kinase 2 (Homo sapiens) (UniProt Q9H093); conditions: Compound concentration 100.0 nM
[39] = target: SNF-related serine/threonine-protein kinase (Homo sapiens) (UniProt Q9NRH2); conditions: Compound concentration 100.0 nM
[40] = target: SRSF protein kinase 1 (Homo sapiens) (UniProt Q96SB4); conditions: Compound concentration 100.0 nM
[41] = target: Serine/threonine-protein kinase 33 (Homo sapiens) (UniProt Q9BYT3); conditions: Compound concentration 100.0 nM
[42] = target: Serine/threonine-protein kinase TBK1 (Homo sapiens) (UniProt Q9UHD2); conditions: Compound concentration 100.0 nM
[43] = target: Wee1-like protein kinase (Homo sapiens) (UniProt P30291); conditions: Compound concentration 100.0 nM
[44] = target: 5-hydroxytryptamine receptor 1B (Homo sapiens) (UniProt P28222); conditions: Compound concentration 10.0 uM
[45] = target: 5-hydroxytryptamine receptor 6 (Homo sapiens) (UniProt P50406); conditions: Compound concentration 10.0 uM

Ephrin type-B receptor 1 (Homo sapiens), sequence (P54762 whole entry): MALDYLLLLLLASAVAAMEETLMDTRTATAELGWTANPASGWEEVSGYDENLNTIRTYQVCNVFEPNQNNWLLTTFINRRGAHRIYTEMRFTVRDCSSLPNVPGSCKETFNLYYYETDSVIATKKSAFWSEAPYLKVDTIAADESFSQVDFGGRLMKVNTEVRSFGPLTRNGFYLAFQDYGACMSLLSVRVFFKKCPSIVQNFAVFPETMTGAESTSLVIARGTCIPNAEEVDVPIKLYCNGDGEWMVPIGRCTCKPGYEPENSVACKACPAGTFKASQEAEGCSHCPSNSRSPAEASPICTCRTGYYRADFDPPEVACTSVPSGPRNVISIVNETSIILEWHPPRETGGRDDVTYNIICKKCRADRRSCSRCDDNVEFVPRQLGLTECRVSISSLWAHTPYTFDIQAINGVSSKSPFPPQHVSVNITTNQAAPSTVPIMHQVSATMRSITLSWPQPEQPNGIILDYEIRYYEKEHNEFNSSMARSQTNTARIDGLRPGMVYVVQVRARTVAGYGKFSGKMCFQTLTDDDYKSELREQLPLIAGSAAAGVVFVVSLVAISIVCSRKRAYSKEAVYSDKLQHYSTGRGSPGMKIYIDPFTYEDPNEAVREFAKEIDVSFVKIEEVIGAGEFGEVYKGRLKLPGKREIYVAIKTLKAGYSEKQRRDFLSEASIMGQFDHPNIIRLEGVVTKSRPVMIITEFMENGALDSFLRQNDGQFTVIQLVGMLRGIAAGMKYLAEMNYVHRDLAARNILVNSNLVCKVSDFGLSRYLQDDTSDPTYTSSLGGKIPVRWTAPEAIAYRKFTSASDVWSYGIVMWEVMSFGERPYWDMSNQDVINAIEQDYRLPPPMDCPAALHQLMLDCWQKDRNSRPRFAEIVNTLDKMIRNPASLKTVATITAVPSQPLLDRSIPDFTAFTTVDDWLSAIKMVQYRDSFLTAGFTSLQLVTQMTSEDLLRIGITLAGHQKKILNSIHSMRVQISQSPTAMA
SRSF protein kinase 1 (Homo sapiens), sequence (Q96SB4 whole entry): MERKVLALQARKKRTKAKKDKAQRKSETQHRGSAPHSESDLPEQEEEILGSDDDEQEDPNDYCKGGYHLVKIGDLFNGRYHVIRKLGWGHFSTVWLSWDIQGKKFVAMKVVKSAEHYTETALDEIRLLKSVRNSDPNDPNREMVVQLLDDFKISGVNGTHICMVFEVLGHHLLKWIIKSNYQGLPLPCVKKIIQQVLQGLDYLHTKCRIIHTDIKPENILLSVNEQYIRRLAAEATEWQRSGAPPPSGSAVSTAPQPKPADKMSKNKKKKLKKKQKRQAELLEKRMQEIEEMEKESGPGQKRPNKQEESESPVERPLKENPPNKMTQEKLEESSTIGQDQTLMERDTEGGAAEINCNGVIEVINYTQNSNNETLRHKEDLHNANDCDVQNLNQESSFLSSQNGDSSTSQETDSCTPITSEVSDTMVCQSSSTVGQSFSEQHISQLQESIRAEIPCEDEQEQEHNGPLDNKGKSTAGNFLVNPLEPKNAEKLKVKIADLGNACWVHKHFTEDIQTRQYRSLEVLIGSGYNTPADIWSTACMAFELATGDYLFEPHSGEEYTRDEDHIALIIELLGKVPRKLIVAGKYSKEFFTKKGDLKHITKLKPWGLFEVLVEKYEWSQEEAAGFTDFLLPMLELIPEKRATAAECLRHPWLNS
Phosphorylase b kinase gamma catalytic chain, skeletal muscle/heart isoform (Homo sapiens), sequence (Q16816 whole entry, looked up, canonical isoform): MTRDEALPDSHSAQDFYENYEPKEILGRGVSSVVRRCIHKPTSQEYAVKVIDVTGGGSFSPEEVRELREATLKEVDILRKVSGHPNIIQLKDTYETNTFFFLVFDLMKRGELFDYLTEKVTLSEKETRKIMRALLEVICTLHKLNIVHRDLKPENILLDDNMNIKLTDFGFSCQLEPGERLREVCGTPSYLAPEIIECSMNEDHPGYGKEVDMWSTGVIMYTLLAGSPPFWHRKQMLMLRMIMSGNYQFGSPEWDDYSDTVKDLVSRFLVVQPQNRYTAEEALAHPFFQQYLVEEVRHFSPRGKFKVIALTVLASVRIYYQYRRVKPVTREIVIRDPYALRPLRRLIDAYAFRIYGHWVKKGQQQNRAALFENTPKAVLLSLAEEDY
Serine/threonine-protein kinase STK11 (Homo sapiens), sequence (Q15831 whole entry): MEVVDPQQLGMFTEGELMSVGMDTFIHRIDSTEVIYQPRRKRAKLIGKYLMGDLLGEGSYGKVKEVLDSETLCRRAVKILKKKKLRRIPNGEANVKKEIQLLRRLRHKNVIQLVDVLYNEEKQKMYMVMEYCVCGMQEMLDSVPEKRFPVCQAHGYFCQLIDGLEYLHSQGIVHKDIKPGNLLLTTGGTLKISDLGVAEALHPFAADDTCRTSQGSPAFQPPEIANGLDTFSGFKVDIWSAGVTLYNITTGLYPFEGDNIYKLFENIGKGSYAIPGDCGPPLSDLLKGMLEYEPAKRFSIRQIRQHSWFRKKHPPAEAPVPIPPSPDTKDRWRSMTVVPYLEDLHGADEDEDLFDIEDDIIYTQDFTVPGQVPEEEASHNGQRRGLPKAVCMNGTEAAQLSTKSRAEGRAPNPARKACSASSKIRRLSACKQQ
5-hydroxytryptamine receptor 1B (Homo sapiens), sequence (P28222 whole entry): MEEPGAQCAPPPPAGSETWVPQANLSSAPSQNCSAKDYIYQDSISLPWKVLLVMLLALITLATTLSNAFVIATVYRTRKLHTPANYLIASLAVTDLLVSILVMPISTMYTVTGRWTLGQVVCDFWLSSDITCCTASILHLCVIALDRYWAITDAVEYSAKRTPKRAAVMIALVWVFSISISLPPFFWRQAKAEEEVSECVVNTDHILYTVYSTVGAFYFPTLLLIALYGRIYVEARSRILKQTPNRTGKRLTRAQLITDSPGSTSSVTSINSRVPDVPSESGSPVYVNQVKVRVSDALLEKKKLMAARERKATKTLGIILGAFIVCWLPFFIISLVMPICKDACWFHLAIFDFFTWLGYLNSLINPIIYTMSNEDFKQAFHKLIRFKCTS
Epidermal growth factor receptor (Homo sapiens), P00533 [UNDEFINED MUTATION], sequence (P00533 whole entry, looked up, change not shown): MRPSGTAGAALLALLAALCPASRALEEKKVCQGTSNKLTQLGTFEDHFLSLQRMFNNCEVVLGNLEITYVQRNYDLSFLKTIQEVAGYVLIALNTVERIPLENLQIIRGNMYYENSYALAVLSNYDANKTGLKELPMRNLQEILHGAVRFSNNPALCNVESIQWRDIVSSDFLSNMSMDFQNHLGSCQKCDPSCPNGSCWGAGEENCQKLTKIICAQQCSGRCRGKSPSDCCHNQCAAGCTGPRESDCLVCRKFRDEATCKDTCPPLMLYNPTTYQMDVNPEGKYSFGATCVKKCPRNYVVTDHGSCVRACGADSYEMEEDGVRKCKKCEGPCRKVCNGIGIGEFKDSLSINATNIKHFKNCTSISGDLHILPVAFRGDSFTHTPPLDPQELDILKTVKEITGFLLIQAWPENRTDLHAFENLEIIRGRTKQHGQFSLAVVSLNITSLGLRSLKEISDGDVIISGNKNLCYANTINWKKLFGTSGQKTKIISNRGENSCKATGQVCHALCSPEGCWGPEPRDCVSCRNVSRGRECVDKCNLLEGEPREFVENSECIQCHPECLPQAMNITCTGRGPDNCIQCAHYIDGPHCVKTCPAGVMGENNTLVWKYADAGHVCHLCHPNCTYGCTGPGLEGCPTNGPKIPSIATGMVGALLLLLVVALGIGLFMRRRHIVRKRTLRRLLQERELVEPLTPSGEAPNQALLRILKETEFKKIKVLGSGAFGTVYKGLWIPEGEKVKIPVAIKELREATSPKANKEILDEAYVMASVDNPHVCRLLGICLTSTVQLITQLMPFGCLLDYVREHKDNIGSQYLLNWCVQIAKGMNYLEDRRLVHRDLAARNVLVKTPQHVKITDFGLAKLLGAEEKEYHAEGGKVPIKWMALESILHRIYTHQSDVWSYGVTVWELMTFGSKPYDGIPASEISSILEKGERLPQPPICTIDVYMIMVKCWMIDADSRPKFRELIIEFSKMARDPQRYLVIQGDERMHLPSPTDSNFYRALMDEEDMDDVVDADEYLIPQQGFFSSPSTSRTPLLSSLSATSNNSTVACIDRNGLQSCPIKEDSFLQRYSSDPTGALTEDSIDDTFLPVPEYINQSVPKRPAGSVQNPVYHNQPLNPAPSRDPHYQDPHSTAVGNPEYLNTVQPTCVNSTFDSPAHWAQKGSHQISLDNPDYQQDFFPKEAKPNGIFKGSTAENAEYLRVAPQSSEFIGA
Serine/threonine-protein kinase MAK (Homo sapiens), sequence (P20794 whole entry): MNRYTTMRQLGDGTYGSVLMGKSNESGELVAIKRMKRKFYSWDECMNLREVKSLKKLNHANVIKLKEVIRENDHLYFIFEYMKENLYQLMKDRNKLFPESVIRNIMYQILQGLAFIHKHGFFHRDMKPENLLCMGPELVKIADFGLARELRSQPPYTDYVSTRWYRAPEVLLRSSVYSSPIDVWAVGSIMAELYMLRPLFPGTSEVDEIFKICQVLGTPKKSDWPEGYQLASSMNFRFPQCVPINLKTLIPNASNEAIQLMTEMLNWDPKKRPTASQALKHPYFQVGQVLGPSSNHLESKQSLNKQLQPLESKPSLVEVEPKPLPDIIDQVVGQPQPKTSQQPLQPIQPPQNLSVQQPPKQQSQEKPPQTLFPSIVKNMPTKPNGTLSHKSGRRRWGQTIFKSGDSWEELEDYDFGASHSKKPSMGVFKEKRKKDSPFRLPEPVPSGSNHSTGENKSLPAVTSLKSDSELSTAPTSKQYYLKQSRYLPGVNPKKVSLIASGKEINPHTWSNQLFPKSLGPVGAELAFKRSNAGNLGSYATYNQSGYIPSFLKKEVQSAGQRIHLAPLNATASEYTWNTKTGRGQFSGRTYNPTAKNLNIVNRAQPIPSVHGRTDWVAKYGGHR
Cyclin-dependent kinase-like 1 (Homo sapiens), sequence (Q00532 whole entry): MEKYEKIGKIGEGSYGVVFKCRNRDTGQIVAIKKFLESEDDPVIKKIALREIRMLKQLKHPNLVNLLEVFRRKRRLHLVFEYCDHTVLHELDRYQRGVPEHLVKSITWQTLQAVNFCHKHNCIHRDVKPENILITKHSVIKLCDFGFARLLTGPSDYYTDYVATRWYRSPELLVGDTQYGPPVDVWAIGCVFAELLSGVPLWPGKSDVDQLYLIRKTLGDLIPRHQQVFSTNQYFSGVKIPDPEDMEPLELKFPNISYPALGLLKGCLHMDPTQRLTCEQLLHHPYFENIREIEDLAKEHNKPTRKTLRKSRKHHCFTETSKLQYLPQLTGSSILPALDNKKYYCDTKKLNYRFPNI

Cn1nc(C(=O)NCc2ccc(C(=O)O)cc2)cc1-c1ccc2[nH]ccc2c1 [BI 4395]
residual activity [1]: 62% | residual activity [2]: 65% | residual activity [3]: 94% | residual activity [4]: 74% | residual activity [5]: 100% | residual activity [6]: 91% | residual activity [7]: 70% | residual activity [8]: 68% | residual activity [9]: 92% | residual activity [10]: 100% | residual activity [11]: 90% | residual activity [12]: 87% | residual activity [13]: 98% | residual activity [14]: 89% | residual activity [15]: 99% | residual activity [16]: 86% | residual activity [17]: 85% | residual activity [18]: 100% | residual activity [19]: 84% | residual activity [20]: 100% | residual activity [21]: 100% | residual activity [22]: 70% | residual activity [23]: 78% | residual activity [24]: 92% | residual activity [25]: 65% | residual activity [26]: 75% | residual activity [27]: 100% | residual activity [28]: 80% | residual activity [29]: 77% | residual activity [30]: 96% | residual activity [31]: 100% | residual activity [32]: 100% | residual activity [33]: 81% | residual activity [34]: 100% | residual activity [35]: 89% | residual activity [36]: 100% | residual activity [37]: 70% | residual activity [38]: 87% | residual activity [39]: 92% | residual activity [40]: 33% | residual activity [41]: 87% | residual activity [42]: 77% | residual activity [43]: 100% | inhibition [44]: 5.48% | inhibition [45]: 8.85%

CCOC(=O)c1cc2cc(-c3cc(C(=O)NCc4ccc(C(=O)O)cc4)nn3C)ccc2[nH]1 [BI 4394]
residual activity [1]: 100% | residual activity [2]: 81% | residual activity [3]: 87% | residual activity [4]: 91% | residual activity [5]: 0% | residual activity [6]: 90% | residual activity [7]: 77% | residual activity [8]: 81% | residual activity [9]: 100% | residual activity [10]: 100% | residual activity [11]: 91% | residual activity [12]: 100% | residual activity [13]: 100% | residual activity [14]: 97% | residual activity [15]: 87% | residual activity [16]: 90% | residual activity [17]: 91% | residual activity [18]: 81% | residual activity [19]: 94% | residual activity [20]: 97% | residual activity [21]: 100% | residual activity [22]: 83% | residual activity [23]: 74% | residual activity [24]: 100% | residual activity [25]: 90% | residual activity [26]: 100% | residual activity [27]: 100% | residual activity [28]: 100% | residual activity [29]: 100% | residual activity [30]: 86% | residual activity [31]: 100% | residual activity [32]: 100% | residual activity [33]: 96% | residual activity [34]: 86% | residual activity [35]: 90% | residual activity [36]: 91% | residual activity [37]: 100% | residual activity [38]: 85% | residual activity [39]: 80% | residual activity [40]: 75% | residual activity [41]: 100% | residual activity [42]: 84% | residual activity [43]: 90% | inhibition [44]: 6.12% | inhibition [45]: 4.01%
